In article PMC11873939, “Target Identification with Live-Cell Photoaffinity Labeling and Mechanism of Action Elucidation of ARN23765, a Highly Potent CFTR Corrector” (Journal of Medicinal Chemistry, 2025):

Biological target: T1, R170G-CFTR (Homo sapiens, UniProt P13569, R170G)
T1 construct: CFTR identification in pull-down studies and analysis of full-length CFTR in protein maturation assays; expressed in transfected cells; host or cells: HEK293 (transient)
Experiment: Protein maturation assay (WB, band C/(C+B)) in transfected HEK293 cells
Assay type: cell-based
Conditions: HEK293, 24 h, 10 nM
Protocol: HEK293 cells were plated in 24-wells at around 80% of confluence and transfected with constructs coding for F508del-CFTR or mutants using JetPEI reagent (101000053, Polyplus Technology) following the manufacturer’s instructions. After 24 h, the correctors were added for a further 24 h. Correctors were used at the following concentrations: ARN23765 (10 nM), VX-445 (3 μM), and 3151 (10 μM). For binding site analysis experiments, the cells were kept either at 37 °C (Figure S8) or moved to 30 °C (Figure 9) during incubation with the selected correctors. VX-445 and corrector 3151 were mixed together as a control for maximal protein correction. DMSO (0.2%) was added to nontreated controls. After treatment, cells were lysed in RIPA buffer [50 mM tris-HCl pH 8, 150 mM NaCl, 1% NP40, 0.5% sodium deoxycolate, 0.1% SDS, 2.0 mM EDTA] and lysates were analyzed with WB, as described in the supplementary methods of the Supporting Information.

T1 sequence (P13569 whole entry R170G): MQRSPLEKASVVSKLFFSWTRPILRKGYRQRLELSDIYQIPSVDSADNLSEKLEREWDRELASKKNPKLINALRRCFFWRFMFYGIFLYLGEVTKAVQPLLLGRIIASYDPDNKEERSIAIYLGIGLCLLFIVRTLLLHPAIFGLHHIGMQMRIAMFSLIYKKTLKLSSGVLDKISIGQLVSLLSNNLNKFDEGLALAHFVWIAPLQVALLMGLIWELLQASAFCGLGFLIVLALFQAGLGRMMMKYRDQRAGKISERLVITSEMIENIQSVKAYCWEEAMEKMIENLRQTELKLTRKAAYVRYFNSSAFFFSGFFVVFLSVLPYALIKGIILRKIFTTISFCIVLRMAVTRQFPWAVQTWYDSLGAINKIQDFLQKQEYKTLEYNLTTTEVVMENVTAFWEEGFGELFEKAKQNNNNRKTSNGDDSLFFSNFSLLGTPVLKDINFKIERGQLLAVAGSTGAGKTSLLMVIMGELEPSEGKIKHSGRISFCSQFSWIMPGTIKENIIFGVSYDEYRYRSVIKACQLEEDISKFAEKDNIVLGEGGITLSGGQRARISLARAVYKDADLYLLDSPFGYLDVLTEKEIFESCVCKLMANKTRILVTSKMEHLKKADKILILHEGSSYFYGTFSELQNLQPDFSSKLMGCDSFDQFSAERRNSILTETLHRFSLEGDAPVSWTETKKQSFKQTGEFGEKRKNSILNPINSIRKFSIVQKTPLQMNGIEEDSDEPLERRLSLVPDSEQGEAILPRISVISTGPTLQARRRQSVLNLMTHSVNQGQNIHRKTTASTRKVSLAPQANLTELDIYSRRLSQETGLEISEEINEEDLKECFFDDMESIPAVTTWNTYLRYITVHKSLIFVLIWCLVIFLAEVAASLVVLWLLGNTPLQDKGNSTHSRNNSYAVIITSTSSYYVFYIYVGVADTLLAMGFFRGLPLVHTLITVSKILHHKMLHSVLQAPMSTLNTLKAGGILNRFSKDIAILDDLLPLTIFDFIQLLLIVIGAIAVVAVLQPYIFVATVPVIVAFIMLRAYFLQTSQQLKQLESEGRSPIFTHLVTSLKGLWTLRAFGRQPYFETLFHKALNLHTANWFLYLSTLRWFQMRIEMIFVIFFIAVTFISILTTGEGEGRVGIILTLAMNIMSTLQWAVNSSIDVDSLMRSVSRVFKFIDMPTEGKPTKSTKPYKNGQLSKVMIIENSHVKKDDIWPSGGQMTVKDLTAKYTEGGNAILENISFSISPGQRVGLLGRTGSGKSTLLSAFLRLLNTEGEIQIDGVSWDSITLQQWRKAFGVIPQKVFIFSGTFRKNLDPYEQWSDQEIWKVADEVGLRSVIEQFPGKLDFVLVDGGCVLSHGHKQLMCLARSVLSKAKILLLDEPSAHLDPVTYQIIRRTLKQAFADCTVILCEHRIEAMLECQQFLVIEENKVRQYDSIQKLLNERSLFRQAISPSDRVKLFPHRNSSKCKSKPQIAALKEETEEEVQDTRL

R170G-CFTR maturation: improving
SMILES: CN(C(=O)c1cccc(-n2nc(C(F)(F)F)c3c2[C@@H](Oc2ccc(C(=O)O)cc2)CCC3)c1)c1ccc2c(c1)OC(F)(F)O2 [ARN23765]
